# Key:
# purple nutsedge = experiment: Test B pre/postemergence purple nutsedge; assay type: in vivo, Cyperus rotundus
# From the text: (§1) Seeds of bedstraw (Galium aparine), blackgrass (Alopecurus myosuroides), surinam grass (Brachiaria decumbens), cocklebur (Xanthium strumarium), corn (Zea mays), crabgrass (Digitaria sanguinalis), giant foxtail (Setaria faberii), morningglory (Ipomoea hederacea), pigweed (Amaranthus retroflexus), rape (Brassica napus), soybean (Glycine max), sugar beet (Beta vulgaris), velvetleaf (Abutilon theophrasti), wheat (Triticum aestivum), wild oat (Avena fatua) and purple nutsedge (Cyperus rotundus) tubers were planted and treated preemnergence with test chemicals formulated in a non-phytotoxic solvent mixture which included a surfactant.
# (§2) At the same time, these crop and weed species were also treated with postemergence applications of test chemicals formulated in the same manner. Plants ranged in height from 2 to 18 cm (1- to 4-leaf stage) for postemergence treatments. Plant species in the flood test consisted of rice (Oryza sativa), smallflower flatsedge (Cyperus difformis), duck salad (Heteranthera limosa) and bamyardgrass (Echinochloa crus-galli) grown to the 2-leaf stage for testing. Treated plants and controls were maintained in a greenhouse for twelve to sixteen days, after which all species were compared to controls and visually evaluated. Plant response ratings, summarized in Table B, are based on a scale of 0 to 10 where 0 is no effect and 10 is complete control. A dash (−) response means no test result.
# bedstraw = experiment: Test B pre/postemergence bedstraw; assay type: in vivo, Galium aparine; conditions: Preemergence
# From the text: as §1, §2
# giant foxtail = experiment: Test B pre/postemergence giant foxtail; assay type: in vivo, Setaria faberii
# From the text: as §1, §2
# velvetleaf = experiment: Test B pre/postemergence velvetleaf; assay type: in vivo, Abutilon theophrasti; conditions: for Plant response rating, Velvetleaf: Rate 250 g/ha
# From the text: as §1, §2
# rape = experiment: Test B pre/postemergence rape; assay type: in vivo, Brassica napus
# From the text: as §1, §2
# morningglory = experiment: Test B pre/postemergence morningglory; assay type: in vivo, Ipomoea hederacea
# From the text: as §1, §2
# surinam grass = experiment: Test B pre/postemergence surinam grass; assay type: in vivo, Brachiaria decumbens
# From the text: as §1, §2
# wild oat = experiment: Test B pre/postemergence wild oat; assay type: in vivo, Avena fatua; conditions: for Plant response rating, Wild oats: Rate 250 g/ha
# From the text: as §1, §2
# cocklebur = experiment: Test B pre/postemergence cocklebur; assay type: in vivo, Xanthium strumarium
# From the text: as §1, §2
# soybean = experiment: Test B pre/postemergence soybean; assay type: in vivo, Glycine max
# From the text: as §1, §2
# sugar beet = experiment: Test B pre/postemergence sugar beet; assay type: in vivo, Beta vulgaris; conditions: for Plant response rating, Sugarbeets: Rate 250 g/ha
# From the text: as §1, §2
# blackgrass = experiment: Test B pre/postemergence blackgrass; assay type: in vivo, Alopecurus myosuroides
# From the text: as §1, §2
# pigweed = experiment: Test B pre/postemergence pigweed; assay type: in vivo, Amaranthus retroflexus
# From the text: as §1, §2
# wheat = experiment: Test B pre/postemergence wheat; assay type: in vivo, Triticum aestivum; conditions: for Plant response rating, Wheat: Rate 250 g/ha
# From the text: as §1, §2
# crabgrass = experiment: Test B pre/postemergence crabgrass; assay type: in vivo, Digitaria sanguinalis
# From the text: as §1, §2
# corn = experiment: Test B pre/postemergence corn; assay type: in vivo, Zea mays
# From the text: as §1, §2
# [1] = Postemergence, Rate 62 g/ha, scale 0 to 10, 0 is no effect, 10 is complete control
# [2] = Postemergence, Rate 125 g/ha, scale of 0 to 10 where 0 is no effect and 10 is complete control
# [3] = Postemergence, Rate 250 g/ha, scale 0 to 10, 0 no effect, 10 complete control
# [4] = Preemergence, Rate 62 g/ha, scale 0 to 10 (0 no effect, 10 complete control)
# [5] = Preemergence, Rate 125 g/ha, scale 0 to 10 (0 no effect, 10 complete control)
# [6] = Preemergence, Rate 250 g/ha, scale of 0 to 10 where 0 is no effect and 10 is complete control
# [7] = Preemergence, Rate 500 g/ha, scale 0 (no effect) to 10 (complete control)
# [8] = Rate 500 g/ha, Postemergence, scale 0 to 10, 0 no effect, 10 complete control
# [9] = Preemergence, Rate 125 g/ha, 0 is no effect, 10 is complete control
# [10] = Preemergence, scale of 0 to 10 where 0 is no effect and 10 is complete control
# [11] = Postemergence, scale 0 to 10, 0 is no effect, 10 is complete control
# [12] = Rate 250 g/ha, Postemergence, scale 0 to 10, 0 is no effect, 10 is complete control
smiles,measurement,setting,value
CCCn1c(=O)on(C(=O)N(c2ccccc2)C(C)C)c1=O [Compound 92],Nutsedge plant response rating,purple nutsedge; [1],0
same,Nutsedge plant response rating,purple nutsedge; [2],0
same,Nutsedge plant response rating,purple nutsedge; [3],0
same,Nutsedge plant response rating,purple nutsedge; [4],0
same,"Plant response rating, Nutsedge",purple nutsedge; [5],0
same,"Plant response rating, Nutsedge",purple nutsedge; [6],0
same,Nutsedge plant response rating,purple nutsedge; [7],0
same,Nutsedge plant response rating,purple nutsedge; [8],2
same,Bedstraw plant response rating,"bedstraw; Rate 62 g/ha, scale 0 to 10 (0 no effect, 10 complete control)",0
same,"Plant response rating, Bedstraw","bedstraw; Rate 125 g/ha, scale 0 to 10 (0 no effect, 10 complete control)",0
same,"Plant response rating, Bedstraw","bedstraw; Rate 250 g/ha, scale of 0 to 10 where 0 is no effect and 10 is complete control",0
same,Bedstraw plant response rating,"bedstraw; Rate 500 g/ha, scale 0 (no effect) to 10 (complete control)",1
same,Giant foxtail plant response rating,giant foxtail; [1],8
same,Giant foxtail plant response rating,giant foxtail; [2],8
same,Giant foxtail plant response rating,giant foxtail; [3],9
same,Giant foxtail plant response rating,giant foxtail; [4],10
same,"Plant response rating, Giant foxtail",giant foxtail; [5],10
same,"Plant response rating, Giant foxtail",giant foxtail; [6],10
same,Giant foxtail plant response rating,giant foxtail; [7],10
same,Giant foxtail plant response rating,giant foxtail; [8],9
same,Velvetleaf plant response rating,velvetleaf; [1],0
same,Velvetleaf plant response rating,velvetleaf; [2],0
same,Velvetleaf plant response rating,velvetleaf; [4],4
same,Velvetleaf plant response rating (0 to 10 scale),velvetleaf; [9],6
same,"Plant response rating, Velvetleaf",velvetleaf; [10],6
same,Velvetleaf plant response rating,velvetleaf; [7],8
same,"Plant response rating, Velvetleaf",velvetleaf; [11],0
same,Rape plant response rating,rape; [1],2
same,Rape plant response rating,rape; [2],3
same,Rape plant response rating,rape; [3],4
same,Rape plant response rating,rape; [4],4
same,"Plant response rating, Rape",rape; [5],9
same,"Plant response rating, Rape",rape; [6],10
same,Rape plant response rating,rape; [7],10
same,Rape plant response rating,rape; [8],6
same,Morningglory plant response rating,morningglory; [1],7
same,Morningglory plant response rating,morningglory; [2],8
same,Morningglory plant response rating,morningglory; [3],10
same,Morningglory plant response rating,morningglory; [4],0
same,"Plant response rating, Morningglory",morningglory; [5],0
same,"Plant response rating, Morningglory",morningglory; [6],0
same,Morningglory plant response rating,morningglory; [7],3
same,Morningglory plant response rating,morningglory; [8],10
same,B. signalgrass plant response rating,surinam grass; [1],3
same,B. signalgrass plant response rating,surinam grass; [3],7
same,B. signalgrass plant response rating,surinam grass; [4],10
same,"Plant response rating, B. signalgrass",surinam grass; [6],10
same,B. signalgrass plant response rating,"surinam grass; Rate 125 g/ha, Postemergence, scale 0 to 10, 0 no effect, 10 complete control",5
same,B. signalgrass plant response rating,"surinam grass; Rate 500 g/ha, Postemergence, scale of 0 to 10 where 0 is no effect and 10 is complete control",7
same,Wild oats plant response rating,wild oat; [1],0
same,Wild oats plant response rating,wild oat; [2],1
same,Wild oats plant response rating,wild oat; [4],7
same,Wild oats plant response rating (0 to 10 scale),wild oat; [9],8
same,"Plant response rating, Wild oats",wild oat; [10],9
same,Wild oats plant response rating,wild oat; [7],10
same,"Plant response rating, Wild oats",wild oat; [11],1
same,Wild oats plant response rating,wild oat; [8],5
same,Cocklebur plant response rating,cocklebur; [1],0
same,Cocklebur plant response rating,cocklebur; [2],1
same,Cocklebur plant response rating,cocklebur; [3],2
same,Cocklebur plant response rating,cocklebur; [4],0
same,"Plant response rating, Cocklebur",cocklebur; [6],0
same,Cocklebur plant response rating,cocklebur; [8],3
same,Soybean plant response rating,soybean; [1],3
same,Soybean plant response rating,soybean; [2],3
same,Soybean plant response rating,soybean; [4],0
same,"Plant response rating, Soybean",soybean; [5],3
same,"Plant response rating, Soybean",soybean; [6],4
same,Soybean plant response rating,soybean; [7],9
same,"Plant response rating, Soybean",soybean; [12],3
same,Soybean plant response rating,soybean; [8],5
same,Sugarbeets plant response rating,sugar beet; [1],1
same,Sugarbeets plant response rating,sugar beet; [2],4
same,Sugarbeets plant response rating,sugar beet; [4],2
same,Sugarbeets plant response rating (0 to 10 scale),sugar beet; [9],6
same,"Plant response rating, Sugarbeets",sugar beet; [10],8
same,Sugarbeets plant response rating,sugar beet; [7],9
same,"Plant response rating, Sugarbeets",sugar beet; [11],6
same,Sugarbeets plant response rating,sugar beet; [8],6
same,Blackgrass plant response rating,blackgrass; [1],7
same,Blackgrass plant response rating,blackgrass; [2],7
same,Blackgrass plant response rating,blackgrass; [3],7
same,Blackgrass plant response rating,blackgrass; [4],9
same,"Plant response rating, Blackgrass",blackgrass; [5],10
same,"Plant response rating, Blackgrass",blackgrass; [6],10
same,Blackgrass plant response rating,blackgrass; [7],10
same,Blackgrass plant response rating,blackgrass; [8],8
same,Redroot pigweed plant response rating,pigweed; [1],2
same,Redroot pigweed plant response rating,pigweed; [2],3
same,Redroot pigweed plant response rating,pigweed; [4],2
same,"Plant response rating, Redroot pigweed",pigweed; [5],7
same,"Plant response rating, Redroot pigweed",pigweed; [6],9
same,Redroot pigweed plant response rating,pigweed; [7],10
same,"Plant response rating, Redroot pigweed",pigweed; [12],4
same,Redroot pigweed plant response rating,pigweed; [8],5
same,Wheat plant response rating,wheat; [1],0
same,Wheat plant response rating,wheat; [2],2
same,Wheat plant response rating,wheat; [4],3
same,Wheat plant response rating (0 to 10 scale),wheat; [9],6
same,"Plant response rating, Wheat",wheat; [10],7
same,Wheat plant response rating,wheat; [7],7
same,"Plant response rating, Wheat",wheat; [11],5
same,Wheat plant response rating,wheat; [8],6
same,Crabgrass plant response rating,crabgrass; [1],6
same,Crabgrass plant response rating,crabgrass; [2],8
same,Crabgrass plant response rating,crabgrass; [3],9
same,Crabgrass plant response rating,crabgrass; [4],8
same,"Plant response rating, Crabgrass",crabgrass; [5],10
same,"Plant response rating, Crabgrass",crabgrass; [6],8
same,Crabgrass plant response rating,crabgrass; [7],10
same,Crabgrass plant response rating,crabgrass; [8],9
same,Corn plant response rating,corn; [1],0
same,Corn plant response rating,corn; [2],0
same,Corn plant response rating,corn; [3],0
same,Corn plant response rating,corn; [4],0
same,"Plant response rating, Corn",corn; [5],2
same,"Plant response rating, Corn",corn; [6],5
same,Corn plant response rating,corn; [7],9
same,Corn plant response rating,corn; [8],4
